# Literature values, collected in paper PMC6304311 (Influenza and Other Respiratory Viruses, 2018).
# “And” between values parts separate entries of the source, which are not always exact repeats. Equal values may be shown once. “Also recorded” adds a separate entry of the source.
# What was measured:
# Settings in all cases: cited from earlier work
# [1] = target: NA from influenza A(H1N1) virus isolates (Influenza A virus, UniProt C0LLZ0)
# [2] = tested on: NA from influenza A(H1N1)pdm09 virus isolates
# [3] = target: NA from influenza A(H3N2) virus isolates (Influenza A virus, UniProt V5P6L4)
# [4] = target: NA from influenza B virus isolates (Influenza B virus, UniProt A0A1S5RAG6)
# [5] = tested on: seasonal influenza A(H1N1) viruses
# influenza A(H3N2) = tested on: influenza A(H3N2)
# [6] = tested on: Influenza A(H1N1)pdm09 H275Y‐resistant phenotype viruses
# [7] = read-out: IC50, resistant phenotype reference virus
Compound,susceptibility phenotype of reference virus [1],"IC50 [1, 7] [nM]",susceptibility phenotype of reference virus [2],"IC50 [2, 7] [nM]",susceptibility phenotype of reference virus [3],"IC50 [3, 7] [nM]",susceptibility phenotype of reference virus [4],frequency of resistance globally [5] [%],phenotype of isolates [5],effect of I215V NA substitution on susceptibility (influenza A(H3N2)),frequency of resistance to inhibition (influenza A(H3N2)),patients with H275Y‐resistant phenotype viruses after treatment [6] [%]
CCOC(=O)C1=C[C@@H](OC(CC)CC)[C@H](NC(C)=O)[C@@H](N)C1 [oseltamivir],susceptible; also recorded: resistant,93.2,susceptible; also recorded: resistant,70.6,susceptible; also recorded: resistant,5.24,susceptible; also recorded: resistant,90,phenotypically resistant,borderline reduction in susceptibility,0.2% and 1.1%,2
CC(=O)N[C@H]1[C@H]([C@H](O)[C@H](O)CO)OC(C(=O)O)=C[C@@H]1N=C(N)N [zanamivir],,,,,,,,,,borderline reduction in susceptibility,,
